From PubChem BioAssay AID1845194 (Molecular Pharmacology Branch, DTP, NCI, 2023)

System: 287954-098-R-J1 tumor spheroid viability
Assay: Anticancer human tumor 287954-098-R-J1 patient-derived Ewing sarcoma cell line growth inhibition
Conditions: spheroids with HUVEC and MSC; for viability, T/C: stronger effect = lower value
Summary of the method: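 Complex spheroids of malignant cells with endothelial cells and mesenchymal stem cells; agents alone or combined, from near clinical Cmax (or 10 microM if unknown) down in half-log steps, 0.25% DMSO final.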

[1] = curve of first compound, second compound 0.003 µM
[2] = second compound 0.003 µM, first compound 0.00949 µM
[3] = second compound 0.003 µM, first compound 0.03 µM
[4] = second compound 0.003 µM, first compound 0.0949 µM
[5] = second compound 0.003 µM, first compound 0.3 µM
[6] = second compound 0.003 µM, first compound 0.949 µM
[7] = second compound 0.003 µM, first compound 3 µM
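Further: spheroids exposed to compound for 7 days before viability readout.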
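Wherever viability, T/C is given: luminescent signal taken as surrogate of viable cell content; 100% = DMSO vehicle control viability and lower means growth inhibition.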

CNCc1ccc(-c2cc(-c3nc(-c4ccc(S(=O)(=O)C(C)C)cc4)cnc3N)on2)cc1 + COc1cc2c(cc1O)CCNC21CSC2c3c(OC(C)=O)c(C)c4c(c3C(COC1=O)N1C(O)C3Cc5cc(C)c(OC)c(O)c5C(C21)N3C)OCO4
IC50 (curve of first compound, second compound 30 pM): 0.516 µM
IC50 (curve of first compound, second compound 94.9 pM): 0.207 µM
IC50 (curve of first compound, second compound 0.0003 µM): 0.154 µM
IC50 (curve of first compound, second compound 0.000949 µM): < 0.00949 µM
IC50 [1]: < 0.00949 µM
viability, T/C (second compound 30 pM, first compound 0.00949 µM): 109%
viability, T/C (second compound 30 pM, first compound 0.03 µM): 108%
viability, T/C (second compound 30 pM, first compound 0.0949 µM): 110%
viability, T/C (second compound 30 pM, first compound 0.3 µM): 94.5%
viability, T/C (second compound 30 pM, first compound 0.949 µM): 0.18%
viability, T/C (second compound 30 pM, first compound 3 µM): 0.12%
viability, T/C (second compound 94.9 pM, first compound 0.00949 µM): 111%
viability, T/C (second compound 94.9 pM, first compound 0.03 µM): 106%
viability, T/C (second compound 94.9 pM, first compound 0.0949 µM): 113%
viability, T/C (second compound 94.9 pM, first compound 0.3 µM): 21.7%
viability, T/C (second compound 94.9 pM, first compound 0.949 µM): 0.11%
viability, T/C (second compound 94.9 pM, first compound 3 µM): 0.14%
viability, T/C (second compound 0.0003 µM, first compound 0.00949 µM): 110%
viability, T/C (second compound 0.0003 µM, first compound 0.03 µM): 115%
viability, T/C (second compound 0.0003 µM, first compound 0.0949 µM): 85.7%
viability, T/C (second compound 0.0003 µM, first compound 0.3 µM): 0.62%
viability, T/C (second compound 0.0003 µM, first compound 0.949 µM): 0.04%
viability, T/C (second compound 0.0003 µM, first compound 3 µM): 0.13%
viability, T/C (second compound 0.000949 µM, first compound 0.00949 µM): 0.42%
viability, T/C (second compound 0.000949 µM, first compound 0.03 µM): 0.41%
viability, T/C (second compound 0.000949 µM, first compound 0.0949 µM): 0.26%
viability, T/C (second compound 0.000949 µM, first compound 0.3 µM): 0.07%
viability, T/C (second compound 0.000949 µM, first compound 0.949 µM): 0.03%
viability, T/C (second compound 0.000949 µM, first compound 3 µM): 0.14%
viability, T/C [2]: 0.21%
viability, T/C [3]: 0.22%
viability, T/C [4]: 0.18%
viability, T/C [5]: 0.17%
viability, T/C [6]: 0.16%
viability, T/C [7]: 0.24%

COc1cc2c(cc1O)CCNC21CSC2c3c(OC(C)=O)c(C)c4c(c3C(COC1=O)N1C(O)C3Cc5cc(C)c(OC)c(O)c5C(C21)N3C)OCO4 (stereo unspecified)
viability, T/C (compound 30 pM): 106% [middle of 10 runs]
viability, T/C (compound 94.9 pM): 107% [middle of 10 runs]
viability, T/C (compound 0.0003 µM): 105% [middle of 10 runs]
viability, T/C (compound 0.000949 µM): 0.29% [middle of 9 runs]
viability, T/C (compound 0.003 µM): 0.17% [middle of 8 runs]
IC50 (compound alone, run of 10/25/2019): 0.548 nM [middle of 9 runs]

CNCc1ccc(-c2cc(-c3nc(-c4ccc(S(=O)(=O)C(C)C)cc4)cnc3N)on2)cc1 + CC[C@@]1(O)C(=O)OCc2c1cc1n(c2=O)Cc2cc3c(CN(C)C)c(O)ccc3nc2-1
IC50 [1]: 0.198 µM
IC50 (curve of first compound, second compound 0.00949 µM): 0.158 µM
IC50 (curve of first compound, second compound 0.03 µM): < 0.00949 µM
IC50 (curve of first compound, second compound 0.0949 µM): < 0.00949 µM
IC50 (curve of first compound, second compound 0.3 µM): < 0.00949 µM
viability, T/C [2]: 109%
viability, T/C [3]: 93.4%
viability, T/C [4]: 108%
viability, T/C [5]: 19.7%
viability, T/C [6]: 0.19%
viability, T/C [7]: 0.31%
viability, T/C (second compound 0.00949 µM, first compound 0.00949 µM): 103%
viability, T/C (second compound 0.00949 µM, first compound 0.03 µM): 114%
viability, T/C (second compound 0.00949 µM, first compound 0.0949 µM): 89.3%
viability, T/C (second compound 0.00949 µM, first compound 0.3 µM): 0.67%
viability, T/C (second compound 0.00949 µM, first compound 0.949 µM): 0.1%
viability, T/C (second compound 0.00949 µM, first compound 3 µM): 0.26%
viability, T/C (second compound 0.03 µM, first compound 0.00949 µM): 19.1%
viability, T/C (second compound 0.03 µM, first compound 0.03 µM): 3.38%
viability, T/C (second compound 0.03 µM, first compound 0.0949 µM): 2.05%
viability, T/C (second compound 0.03 µM, first compound 0.3 µM): 0.64%
viability, T/C (second compound 0.03 µM, first compound 0.949 µM): 0.05%
viability, T/C (second compound 0.03 µM, first compound 3 µM): 0.26%
viability, T/C (second compound 0.0949 µM, first compound 0.00949 µM): 2.1%
viability, T/C (second compound 0.0949 µM, first compound 0.03 µM): 2.08%
viability, T/C (second compound 0.0949 µM, first compound 0.0949 µM): 2.28%
viability, T/C (second compound 0.0949 µM, first compound 0.3 µM): 0.97%
viability, T/C (second compound 0.0949 µM, first compound 0.949 µM): 0.06%
viability, T/C (second compound 0.0949 µM, first compound 3 µM): 0.3%
viability, T/C (second compound 0.3 µM, first compound 0.00949 µM): 2.14%
viability, T/C (second compound 0.3 µM, first compound 0.03 µM): 2.11%
viability, T/C (second compound 0.3 µM, first compound 0.0949 µM): 2.27%
viability, T/C (second compound 0.3 µM, first compound 0.3 µM): 1.94%
viability, T/C (second compound 0.3 µM, first compound 0.949 µM): 0.24%
viability, T/C (second compound 0.3 µM, first compound 3 µM): 0.43%
